Data reported in patent publication US20260022142A1, “MACROCYCLIC IMMUNOMODULATORS” (Bristol-Myers Squibb Company, priority 2022, published 2026).
Bridge positions count the residues as written; N and C are the ends. Square brackets hold non-standard residues; d marks the D form. Peptide text beside a SMILES is read from it. * marks the point of attachment. ξ: configuration not given here. Phe(3-CF3) = N[C@@H](Cc1cccc(C(F)(F)F)c1)C(=O)O; Phe(4-COOH) = N[C@@H](Cc1ccc(C(=O)O)cc1)C(=O)O; Tyr(3-Cl) = N[C@@H](Cc1ccc(O)c(Cl)c1)C(=O)O; Bip = N[C@@H](Cc1ccc(-c2ccccc2)cc1)C(=O)O; Phe(4-CN) = N#Cc1ccc(C[C@H](N)C(=O)O)cc1; Phe(3-Me) = Cc1cccc(C[C@H](N)C(=O)O)c1; NH(CH2)12COOH = O=C(O)CCCCCCCCCCCCN*; Val(3-OH) = CC(C)(O)[C@H](N)C(=O)O; hArg = N=C(N)NCCCC[C@H](N)C(=O)O; 4Pal = N[C@@H](Cc1ccncc1)C(=O)O; Cha = N[C@@H](CC1CCCCC1)C(=O)O; Thr(3ξ) = CC(O)[C@H](N)C(=O)O; 12Ado = NCCCCCCCCCCCC(=O)O; dDab = NCC[C@@H](N)C(=O)O; Carboxymethyl = O=C(O)C*; NMeA = CN[C@@H](C)C(=O)O; Orn = NCCC[C@H](N)C(=O)O; Aun = NCCCCCCCCCCC(=O)O; Dab = NCC[C@H](N)C(=O)O; Dap = NC[C@H](N)C(=O)O; AEEA = NCCOCCOCC(=O)O

The compounds below were run against T1, PD-1/PD-L1 interaction (PE-labeled human PD-L1-Ig binding to Jurkat cell line over-expressing human PD-1) (Homo sapiens, UniProt Q15116) (assay: Jurkat-PD-1 Cell Binding High-Content Screening Assay (CBA)). Conditions: Jurkat cell line over-expressing human PD-1; PE-labeled PD-L1-Ig 20 nM final; read-out: Jurkat hPD1-PDL1 IC50.
T1 construct: expressed in transfected cells; host or cells: Jurkat
Assay type: cell-based
Outline: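 First, compound is added to PD-1-expressing Jurkat cells in serum-containing DMEM and left 2 h at 37° C. Next, PE-conjugated PD-L1-Ig is introduced at 20 nM final concentration for 1 hour. Finally, cells are fixed in 4% paraformaldehyde with Hoechst 33342, washed and imaged.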

T1 sequence (Q15116 25-288): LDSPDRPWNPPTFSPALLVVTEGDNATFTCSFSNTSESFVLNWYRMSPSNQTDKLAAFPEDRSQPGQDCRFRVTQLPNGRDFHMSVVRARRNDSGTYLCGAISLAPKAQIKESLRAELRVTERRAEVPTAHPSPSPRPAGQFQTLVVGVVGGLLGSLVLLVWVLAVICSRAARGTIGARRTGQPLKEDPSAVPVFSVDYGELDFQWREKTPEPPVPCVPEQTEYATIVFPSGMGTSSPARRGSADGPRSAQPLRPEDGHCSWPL

Row | SMILES | IC50 [nM]
1 | Cc1cccc(C[C@@H]2NC(=O)[C@H](CC(=O)O)NC(=O)[C@H](Cc3ccc(OCC(=O)O)cc3)NC(=O)[C@H](CCCNC(=N)N)NC(=O)CSC[C@@H](C(=O)N(C)[C@@H](C)C(=O)NCCOCCOCC(=O)NCCCCCCCCCCC(=O)O)NC(=O)[C@H](CCCN)NC(=O)[C@H](C(C)C)NC(=O)[C@H](CC3CCCCC3)NC(=O)[C@H](CCN)NC(=O)[C@@H](CC(C)C)NC(=O)[C@H](CCN)NC(=O)[C@H](C(C)C)NC(=O)[C@H](Cc3ccc(-c4ccccc4)cc3)NC(=O)[C@H](C(C)C)NC2=O)c1 [Compound 3319] ({CH2CO}-RY(Carboxymethyl)D[Phe(3-Me)]V[Bip]V[Dab][dL][Dab][Cha]V[Orn]C[NMeA][AEEA][Aun]-OH; thioether N-14) | 53.4
2 | CC(C)C[C@H]1NC(=O)[C@H](CCCN)NC(=O)[C@H](Cc2ccc(O)cc2)NC(=O)[C@H](Cc2ccc(-c3ccccc3)cc2)NC(=O)[C@H](C(C)C)NC(=O)[C@H](Cc2c[nH]c3ccccc23)NC(=O)[C@H](CC(=O)O)NC(=O)[C@H](Cc2ccc(O)cc2)NC(=O)[C@H](Cc2ccncc2)NC(=O)CSC[C@@H](C(=O)N[C@@H](CCN)C(=O)NCCCCCCCCCCC(=O)O)NC(=O)[C@H]([C@@H](C)O)NC(=O)[C@H](C(C)C)NC(=O)[C@H](CC2CCCCC2)NC(=O)[C@H](CCN)NC1=O [Compound 2743] ({CH2CO}-[4Pal]YDWV[Bip]Y[Orn][dL][Dab][Cha]VTC[Dab][Aun]-OH; thioether N-14) | 97.6
3 | CC(C)C[C@H]1NC(=O)[C@H](CCCN)NC(=O)[C@H](Cc2ccc(O)cc2)NC(=O)[C@H](Cc2ccc(-c3ccccc3)cc2)NC(=O)[C@H](Cc2ccc(OCC(=O)O)cc2)NC(=O)[C@H](Cc2ccc(O)cc2)NC(=O)[C@H](CC(=O)O)NC(=O)[C@H](Cc2ccc(OCC(=O)O)cc2)NC(=O)[C@H](CN)NC(=O)CSC[C@@H](C(=O)N[C@@H](CCN)C(=O)NCCOCCOCC(=O)NCCCCCCCCCCC(=O)O)NC(=O)[C@H](CCCN)NC(=O)[C@H](C(C)C)NC(=O)[C@H](CC2CCCCC2)NC(=O)[C@H](CCN)NC1=O [Compound 1311] ({CH2CO}-[Dap]Y(Carboxymethyl)DYY(Carboxymethyl)[Bip]Y[Orn][dL][Dab][Cha]V[Orn]C[Dab][AEEA][Aun]-OH; thioether N-14) | 103
4 | COc1ccc(C[C@@H]2NC(=O)[C@H](Cc3ccc(-c4ccccc4)cc3)NC(=O)[C@H](Cc3ccc(O)cc3)NC(=O)[C@H](Cc3cccc(C)c3)NC(=O)[C@H](CC(=O)O)NC(=O)[C@H](Cc3ccc(OCC(=O)O)cc3)NC(=O)[C@H](CN)NC(=O)CSC[C@@H](C(=O)N[C@@H](CCN)C(=O)NCCOCCOCC(=O)NCCCCCCCCCCC(=O)O)NC(=O)[C@H](CCCN)NC(=O)[C@H](C(C)C)NC(=O)[C@H](CC3CCCCC3)NC(=O)[C@H](CCN)NC(=O)[C@@H](CC(C)C)NC(=O)[C@H](CCCN)NC2=O)cc1 [Compound 2056] ({CH2CO}-[Dap]Y(Carboxymethyl)D[Phe(3-Me)]Y[Bip]Y(Me)[Orn][dL][Dab][Cha]V[Orn]C[Dab][AEEA][Aun]-OH; thioether N-14) | 12.6
5 | CC(C)C[C@H]1NC(=O)[C@H](CCCN)NC(=O)[C@H](Cc2ccc(C(=O)O)cc2)NC(=O)[C@H](Cc2ccc(-c3ccccc3)cc2)NC(=O)[C@H](Cc2ccc(C(=O)O)cc2)NC(=O)[C@H](Cc2cccc(C(F)(F)F)c2)NC(=O)[C@H](CC(=O)O)NC(=O)[C@H](Cc2ccc(OCC(=O)O)cc2)NC(=O)[C@H](CC2CCCCC2)NC(=O)CSC[C@@H](C(=O)N[C@H](CCN)C(=O)NCCOCCOCC(=O)NCCOCCOCC(=O)NCCCCCCCCCCCCC(=O)O)NC(=O)[C@H](CO)NC(=O)[C@H](C(C)(C)O)NC(=O)[C@H](CC2CCCCC2)NC(=O)[C@H](CCN)NC1=O [Compound 3831] ({CH2CO}-[Cha]Y(Carboxymethyl)D[Phe(3-CF3)][Phe(4-COOH)][Bip][Phe(4-COOH)][Orn][dL][Dab][Cha][Val(3-OH)]SC[dDab][AEEA][AEEA]-{NH(CH2)12COOH}; thioether N-14) | 22.5
6 | Cc1cccc(C[C@@H]2NC(=O)[C@H](CC(=O)O)NC(=O)[C@H](Cc3ccc(OCC(=O)O)cc3)NC(=O)[C@H](CCCNC(=N)N)NC(=O)CN(C)C[C@@H](C(=O)N[C@@H](CCN)C(=O)NCCCCCCCCCCC(=O)O)NC(=O)[C@H]([C@@H](C)O)NC(=O)[C@H](C(C)C)NC(=O)[C@H](CC3CCCCC3)NC(=O)[C@H](CCN)NC(=O)[C@@H](CC(C)C)NC(=O)[C@H](CCCN)NC(=O)[C@H](Cc3ccc(OCC(=O)O)cc3)NC(=O)[C@H](Cc3ccc(-c4ccccc4)cc3)NC(=O)[C@H](Cc3ccc(OCC(=O)O)cc3)NC2=O)c1 [Compound 2159] | 96.1
7 | Cc1cccc(C[C@@H]2NC(=O)[C@H](CC(=O)O)NC(=O)[C@H](Cc3ccc(OCC(=O)O)cc3)NC(=O)[C@H](CN)NC(=O)CSC[C@@H](C(=O)N[C@@H](CCN)C(=O)NCCOCCOCC(=O)NCCCCCCCCCCC(=O)O)NC(=O)[C@H](CCCN)NC(=O)[C@H](C(C)C)NC(=O)[C@H](CC3CCCCC3)NC(=O)[C@H](CCN)NC(=O)[C@@H](CC(C)C)NC(=O)[C@H](CCCN)NC(=O)[C@H](Cc3ccc(O)cc3)NC(=O)[C@H](Cc3ccc(-c4ccccc4)cc3)NC(=O)[C@H](Cc3ccc(O)c(Cl)c3)NC2=O)c1 [Compound 2075] ({CH2CO}-[Dap]Y(Carboxymethyl)D[Phe(3-Me)][Tyr(3-Cl)][Bip]Y[Orn][dL][Dab][Cha]V[Orn]C[Dab][AEEA][Aun]-OH; thioether N-14) | 14.3
8 | Cc1cccc(C[C@@H]2NC(=O)[C@H](CC(=O)O)NC(=O)[C@H](Cc3ccc(C#N)cc3)NC(=O)[C@H](C(C)O)NC(=O)CSC[C@@H](C(=O)N[C@@H](CCN)C(=O)NCCOCCOCC(=O)NCCCCCCCCCCC(=O)O)NC(=O)[C@H](Cc3cnc[nH]3)NC(=O)[C@H](C(C)(C)O)NC(=O)[C@H](CC3CCCCC3)NC(=O)[C@H](CCN)NC(=O)[C@@H](CC(C)C)NC(=O)[C@H](CCCN)NC(=O)[C@H](Cc3ccc(OCC(=O)O)cc3)NC(=O)[C@H](Cc3ccc(-c4ccccc4)cc3)NC(=O)[C@H](Cc3ccc(OCC(=O)O)cc3)NC2=O)c1 (stereo partly drawn) [Compound 3776] ({CH2CO}-[Thr(3ξ)][Phe(4-CN)]D[Phe(3-Me)]Y(Carboxymethyl)[Bip]Y(Carboxymethyl)[Orn][dL][Dab][Cha][Val(3-OH)]HC[Dab][AEEA][Aun]-OH; thioether N-14) | 3.6

The remaining lines, values ahead:

Row | IC50 [nM] | SMILES
9 | 24.1 | CC(C)C[C@H]1NC(=O)[C@H](CCCN)NC(=O)[C@H](C(C)C)NC(=O)[C@H](Cc2ccc(-c3ccccc3)cc2)NC(=O)[C@H](C(C)C)NC(=O)[C@H](Cc2c[nH]c3ccccc23)NC(=O)[C@H](CC(=O)O)NC(=O)[C@H](Cc2ccc(C(=O)O)cc2)NC(=O)[C@H](Cc2ccc(OCC(=O)O)cc2)NC(=O)CSC[C@@H](C(=O)N[C@@H](CCN)C(=O)NCCCCCCCCCCC(=O)O)NC(=O)[C@H](CCCCN)NC(=O)[C@H](C(C)C)NC(=O)[C@H](CC2CCCCC2)NC(=O)[C@H](CCN)NC1=O [Compound 2555] ({CH2CO}-Y(Carboxymethyl)[Phe(4-COOH)]DWV[Bip]V[Orn][dL][Dab][Cha]VKC[Dab][Aun]-OH; thioether N-14)
10 | 8.1 | CC[C@H](C)[C@@H]1NC(=O)[C@H](Cc2ccc(-c3ccccc3)cc2)NC(=O)[C@H](C(C)C)NC(=O)[C@H](Cc2cccc(C)c2)NC(=O)[C@H](CC(=O)O)NC(=O)[C@H](Cc2ccc(OCC(=O)O)cc2)NC(=O)[C@H](CN)NC(=O)CSC[C@@H](C(=O)N[C@@H](CCCCN)C(=O)NCCCCCCCCCCC(=O)O)NC(=O)[C@H](CCCN)NC(=O)[C@H](C(C)C)NC(=O)[C@H](CC2CCCCC2)NC(=O)[C@H](CCN)NC(=O)[C@@H](CC(C)C)NC(=O)[C@H](CCCN)NC1=O [Compound 2640] ({CH2CO}-[Dap]Y(Carboxymethyl)D[Phe(3-Me)]V[Bip]I[Orn][dL][Dab][Cha]V[Orn]CK[Aun]-OH; thioether N-14)
11 | 46.7 | CC(C)C[C@H]1NC(=O)[C@H](CCCN)NC(=O)[C@H](C(C)C)NC(=O)[C@H](Cc2ccc(-c3ccccc3)cc2)NC(=O)[C@H](C(C)C)NC(=O)[C@H](Cc2c[nH]c3ccccc23)NC(=O)[C@H](CC(=O)O)NC(=O)[C@H](Cc2ccc(OCC(=O)O)cc2)NC(=O)[C@H](CN)NC(=O)CSC[C@@H](C(=O)N[C@@H](CCCCN)C(=O)NCCCCCCCCCCC(=O)O)NC(=O)[C@H]([C@@H](C)O)NC(=O)[C@H](C(C)C)NC(=O)[C@H](CC2CCCCC2)NC(=O)[C@H](Cc2c[nH]cn2)NC1=O [Compound 1077] ({CH2CO}-[Dap]Y(Carboxymethyl)DWV[Bip]V[Orn][dL]H[Cha]VTCK[Aun]-OH; thioether N-14)
12 | 33.4 | CC(C)C[C@H]1NC(=O)[C@H](CCCN)NC(=O)[C@H](C(C)C)NC(=O)[C@H](Cc2ccc(-c3ccccc3)cc2)NC(=O)[C@H](C(C)C)NC(=O)[C@H](Cc2c[nH]c3ccccc23)NC(=O)[C@H](CC(=O)O)NC(=O)[C@H](Cc2ccc(OCC(=O)O)cc2)NC(=O)[C@H](CCCCNC(=N)N)NC(=O)CSC[C@@H](C(=O)NCC(=O)N[C@@H](CCCN)C(=O)NCCCCCCCCCCCC(=O)O)NC(=O)[C@H](CN)NC(=O)[C@H](C(C)C)NC(=O)[C@H](CC2CCCCC2)NC(=O)[C@H](CC(N)=O)NC1=O [Compound 3176] ({CH2CO}-[hArg]Y(Carboxymethyl)DWV[Bip]V[Orn][dL]N[Cha]V[Dap]CG[Orn][12Ado]-OH; thioether N-14)
13 | 18.9 | CC(C)C[C@H]1NC(=O)[C@H](CCCN)NC(=O)[C@H](C(C)C)NC(=O)[C@H](Cc2ccc(-c3ccccc3)cc2)NC(=O)[C@H](C(C)C)NC(=O)[C@H](Cc2c[nH]c3ccccc23)NC(=O)[C@H](CC(=O)O)NC(=O)[C@H](Cc2ccc(OCC(=O)O)cc2)NC(=O)[C@H](Cc2ccc(OCC(=O)O)cc2)NC(=O)CSC[C@@H](C(=O)N[C@@H](CCCCN)C(=O)NCCCCCCCCCCC(=O)O)NC(=O)[C@H](CCCN)NC(=O)[C@H](C(C)C)NC(=O)[C@H](CC2CCCCC2)NC(=O)[C@H](CCN)NC1=O [Compound 2537] ({CH2CO}-Y(Carboxymethyl)Y(Carboxymethyl)DWV[Bip]V[Orn][dL][Dab][Cha]V[Orn]CK[Aun]-OH; thioether N-14)
